# Data reported in US20240228506A1, “RIPK1 INHIBITORS AND METHODS OF USE” (Merck Sharp & Dohme LLC, priority 2021, published 2024).
# Target: T1, GST-RIPK1 (recombinant GST-RIPK1 kinase domain (residues 1-327)) (Homo sapiens, UniProt Q13546)
# T1 construct: recombinant GST-RIPK1 kinase domain (residues 1-327) enzyme; made in house; host or cells: baculovirus-transfected Sf21 insect cells
# T1 sequence (Q13546 1-327): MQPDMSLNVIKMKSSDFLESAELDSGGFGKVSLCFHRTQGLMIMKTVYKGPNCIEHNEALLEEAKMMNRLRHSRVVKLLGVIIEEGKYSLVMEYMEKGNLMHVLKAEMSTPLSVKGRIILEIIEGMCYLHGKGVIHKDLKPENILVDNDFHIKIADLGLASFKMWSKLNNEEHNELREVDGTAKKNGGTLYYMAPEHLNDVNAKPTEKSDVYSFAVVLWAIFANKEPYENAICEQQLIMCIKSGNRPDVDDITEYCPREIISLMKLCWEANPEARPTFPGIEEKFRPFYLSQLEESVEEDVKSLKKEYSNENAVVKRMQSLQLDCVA
# Experiment: RIPK1-ADP-Glo enzymatic assay
# Assay type: biochemical
# Conditions: 25 nM GST-RIPK1, 300 μM ATP, 3 μM dephosphorylated-MBP; 30 minutes pre-incubation, 150 minutes reaction; ten-point titration
# Method in brief: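 Ten-point 1:3 titrations from 100000 nM, 1% DMSO, were preincubated 30 min with 25 nM GST-RIPK1 (1-327) before starting with 300 μM ATP plus 3 μM dephosphorylated MBP; 150 min reaction. ADP-Glo luminescence measured ATP-to-ADP conversion; EC50 by four-parameter sigmoidal regression.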
row,SMILES,IC50
1,"CCC(C#N)(CC)C(=O)N1C[C@@H]2C[C@H]1c1cncc(C#N)c1O2 [Compound 1-21, (2S,5S)-4-(2-cyano-2-ethylbutanoyl)-2,3,4,5-tetrahydro-2,5-methanopyrido[3,4-f][1,4]oxazepine-9-carbonitrile]",366 nM
2,"CC(C(=O)N1C[C@@H]2C[C@H]1c1cncc(C#N)c1O2)(C(F)F)C1CC1 (single isomer, unassigned) [Compound 1-88, (2S,5S)-4-(2-(R or S)-cyclopropyl-3,3-difluoro-2-methylpropanoyl)-2,3,4,5-tetrahydro-2,5-methanopyrido[3,4-f][1,4]oxazepine-9-carbonitrile]",96 nM
3,"N#Cc1cncc2c1O[C@H]1C[C@@H]2N(C(=O)C23CCC(CO2)C3)C1 [Compound 1-108, (2S,5S)-4-(2-oxabicyclo[2.2.1]heptane-1-carbonyl)-2,3,4,5-tetrahydro-2,5-methanopyrido[3,4-f][1,4]oxazepine-9-carbonitrile]",269 nM
4,"N#Cc1cncc2c1O[C@H]1C[C@@H]2N(C(=O)C23CCCC2C3)C1 (single isomer, unassigned) [Compound 1-32, (2S,5S)-4-[(1R,5R or 1S,5S)-bicyclo[3.1.0]hexane-1-carbonyl]-2,3,4,5-tetrahydro-2,5-methanopyrido[3,4-f][1,4]oxazepine-9-carbonitrile]",290 nM
5,"N#Cc1cncc2c1O[C@H]1C[C@@H]2N(C(=O)C23CCC(CC2(F)F)C3)C1 (single isomer, unassigned) [Compound 1-48, (2S,5S)-4-[(S or R)-2,2-difluorobicyclo[2.2.1]heptane-1-carbonyl]-2,3,4,5-tetrahydro-2,5-methanopyrido[3,4-f][1,4]oxazepine-9-carbonitrile]",5 nM
6,"CC(F)(F)C1(C(=O)N2C[C@@H]3C[C@H]2c2cncc(C#N)c2O3)CCC1 [Compound 1-22, (2S,5S)-4-[1-(1,1-difluoroethyl)cyclobutane-1-carbonyl]-2,3,4,5-tetrahydro-2,5-methanopyrido[3,4-f][1,4]oxazepine-9-carbonitrile]",55 nM
7,"C#CC(C)(C)C(=O)N1C[C@@H]2C[C@H]1c1cncc(C#N)c1O2 [Compound 1-96, (2S,5S)-4-(2,2-dimethylbut-3-ynoyl)-2,3,4,5-tetrahydro-2,5-methanopyrido[3,4-f][1,4]oxazepine-9-carbonitrile]",148 nM
8,"N#Cc1cncc2c1O[C@H]1C[C@@H]2N(C(=O)C23CCC(F)(CC2)CC3)C1 [Compound 1-63, (2S,5S)-4-(4-fluorobicyclo[2.2.2]octane-1-carbonyl)-2,3,4,5-tetrahydro-2,5-methanopyrido[3,4-f][1,4]oxazepine-9-carbonitrile]",58 nM
9,"CC(C)(C(=O)N1C[C@@H]2C[C@H]1c1cncc(C#N)c1O2)C1CC1 [Compound 1-8, (2S,5S)-4-(2-cyclopropyl-2-methylpropanoyl)-2,3,4,5-tetrahydro-2,5-methanopyrido[3,4-f][1,4]oxazepine-9-carbonitrile]",29 nM
10,"N#Cc1cncc2c1O[C@H]1C[C@@H]2N(C(=O)C2(F)CCN(c3nccn4ncnc34)CC2)C1 [Compound 1-58, (2S,5S)-4-(1-([1,2,4]triazolo[1,5-a]pyrazin-8-yl)-4-fluoropiperidine-4-carbonyl)-2,3,4,5-tetrahydro-2,5-methanopyrido[3,4-f][1,4]oxazepine-9-carbonitrile]",74 nM
11,"CC(C)(C(=O)N1C[C@@H]2C[C@H]1c1cncc(C#N)c1O2)C1CCC1 [Compound 1-25, (2S,5S)-4-(2-cyclobutyl-2-methylpropanoyl)-2,3,4,5-tetrahydro-2,5-methanopyrido[3,4-f][1,4]oxazepine-9-carbonitrile]",119 nM
12,"CC(C)(CF)C(=O)N1C[C@@H]2C[C@H]1c1cncc(C#N)c1O2 [Compound 1-42, (2S,5S)-4-(3-fluoro-2,2-dimethylpropanoyl)-2,3,4,5-tetrahydro-2,5-methanopyrido[3,4-f][1,4]oxazepine-9-carbonitrile]",114 nM
13,"N#Cc1cncc2c1O[C@H]1C[C@@H]2N(C(=O)C2(F)CCN(c3ncnc4scnc34)CC2)C1 [Compound 1-57, (2S,5S)-4-(4-fluoro-1-(thiazolo[5,4-d]pyrimidin-7-yl)piperidine-4-carbonyl)-2,3,4,5-tetrahydro-2,5-methanopyrido[3,4-f][1,4]oxazepine-9-carbonitrile]",35 nM

# The next lines start with the values.
row,IC50,SMILES
1,25 nM,"COc1ccc2cc(C#Cc3cncc4c3O[C@H]3C[C@@H]4N(C(=O)C(C)(C)C)C3)ccc2c1 [Compound 2-38, 1-((2S,5S)-9-((6-methoxynaphthalen-2-yl)ethynyl)-2,3-dihydro-2,5-methanopyrido[3,4-f][1,4]oxazepin-4(5H)-yl)-2,2-dimethylpropan-1-one]"
2,197 nM,"CC(C)C#Cc1cncc2c1O[C@H]1C[C@@H]2N(C(=O)C(C)(C)C(F)F)C1 [Compound 2-106, 3,3-Difluoro-2,2-dimethyl-1-((2S,5S)-9-(3-methylbut-1-yn-1-yl)-2,3-dihydro-2,5-methanopyrido[3,4-f][1,4]oxazepin-4(5H)-yl)propan-1-one]"
3,27 nM,"N#Cc1cncc2c1S[C@H]1C[C@@H]2N(C(=O)C2(C#N)CCCC2)C1 [Compound 4-7, (2S,5S)-4-(1-cyanocyclopentane-1-carbonyl)-2,3,4,5-tetrahydro-2,5-methanopyrido[3,4-f][1,4]thiazepine-9-carbonitrile]"
4,24 nM,CC(C)(C(=O)N1C[C@@H]2C[C@H]1c1cncc(Cl)c1O2)C1CC1 [Compound 2-6]
5,10 nM,"O=C(N1C[C@@H]2C[C@H]1c1cncc(Cl)c1O2)C12CCC(C(F)(F)F)(CC1)C2 [Compound 2-4, [(2S,5S)-9-chloro-2,3-dihydro-2,5-methanopyrido[3,4-f][1,4]oxazepin-4(5H)-yl][4-(trifluoromethyl)bicyclo [2.2.1]heptan-1-yl]methanone]"
6,19 nM,"CC(C)(C(=O)N1C[C@@H]2C[C@H]1c1cncc(C#Cc3cnc(C#N)nc3)c1O2)C(F)F [Compound 2-78, 5-(((2S,5S)-4-(3,3-difluoro-2,2-dimethylpropanoyl)-2,3,4,5-tetrahydro-2,5-methanopyrido[3,4-f][1,4]oxazepin-9-yl)ethynyl)pyrimidine-2-carbonitrile]"
7,124 nM,"O=C(N1C[C@@H]2C[C@H]1c1cncc(Cl)c1O2)C1(C(F)F)CCC1 [Compound 2-12, ((2S,5S)-9-chloro-2,3-dihydro-2,5-methanopyrido[3,4-f][1,4]oxazepin-4(5H)-yl)(1-(difluoromethyl)cyclobutyl) methanone]"
8,58 nM,"CC(C)(C(=O)N1C[C@@H]2C[C@H]1c1cncc(C#Cc3cnc4cncn4c3)c1O2)C(F)F [Compound 2-93, 3,3-difluoro-1-((2S,5S)-9-(imidazo[1,5-a]pyrimidin-3-ylethynyl)-2,3-dihydro-2,5-methanopyrido[3,4-f][1,4]oxazepin-4(5H)-yl)-2,2-dimethylpropan-1-one]"
9,37 nM,"O=C(N1C[C@@H]2C[C@H]1c1cncc(F)c1O2)C12CCC(CC1)C2 [Compound 2-21, bicyclo[2.2.1]heptan-1-yl((2S,5S)-9-fluoro-2,3-dihydro-2,5-methanopyrido[3,4-f][1,4]oxazepin-4(5H)-yl)methanone]"
10,64 nM,"O=C(N1C[C@@H]2C[C@H]1c1cncc(C#CCC3CCOC3)c1O2)C12CCC(F)(CC1)C2 (stereo partly drawn) [Compound 2-118, (4-fluorobicyclo[2.2.1]heptan-1-yl)((2S,5S)-9-(3-(tetrahydrofuran-3-yl)prop-1-yn-1-yl)-2,3-dihydro-2,5-methanopyrido[3,4-f][1,4]oxazepin-4(5H)-yl)methanone]"
11,20 nM,"O=C(N1C[C@@H]2C[C@H]1c1cncc(Cl)c1O2)C12CCC(CC1)C2 [Compound 2-31, Bicyclo[2.2.1]heptan-1-yl((2S,5S)-9-chloro-2,3-dihydro-2,5-methanopyrido[3,4-f][1,4]oxazepin-4(5H)-yl)methanone]"
12,23 nM,"Cc1cccc(C#Cc2cncc3c2O[C@H]2C[C@@H]3N(C(=O)C34CCC(F)(CC3)C4)C2)c1 [Compound 2-104, (4-fluorobicyclo[2.2.1]heptan-1-yl)((2S,5S)-9-(m-tolylethynyl)-2,3-dihydro-2,5-methanopyrido[3,4-f][1,4]oxazepin-4(5H)-yl)methanone]"
13,57 nM,"O=C(N1C[C@@H]2C[C@H]1c1cncc(C#CC3COC3)c1O2)C12CCC(F)(CC1)C2 [Compound 2-119, (4-fluorobicyclo[2.2.1]heptan-1-yl)((2S,5S)-9-(oxetan-3-ylethynyl)-2,3-dihydro-2,5-methanopyrido[3,4-f][1,4]oxazepin-4(5H)-yl)methanone]"
14,32 nM,"CC(C)(C(=O)N1C[C@@H]2C[C@H]1c1cncc(C#Cc3cncnc3)c1O2)C(F)F [Compound 2-45, 3,3-difluoro-2,2-dimethyl-1-((2S,5S)-9-(pyrimidin-5-ylethynyl)-2,3-dihydro-2,5-methanopyrido[3,4-f][1,4]oxazepin-4(5H)-yl)propan-1-one]"
15,34 nM,"CC(F)(F)C(C)(C)C(=O)N1C[C@@H]2C[C@H]1c1cncc(C#Cc3ccc(F)cc3)c1O2 [Compound 2-123, 3,3-difluoro-1-((25,5S)-9-((4-fluorophenyl)ethynyl)-2,3-dihydro-2,5-methanopyrido[3,4-f][1,4]oxazepin-4(5H)-yl)-2,2-dimethylbutan-1-one]"
